Experiments:
[1] = test system: SAGPY (Arrowhead (Pygmaea)); test: Preemergence weed control under flooded paddy conditions; format: in vivo, Sagittaria pygmaea; conditions: rated 3-4 weeks after treatment
In short: (§1)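 Flooded-pot preemergence screen with silt loam and seeds in the upper 0.5 cm. Dose about 0.0313 to 0.500 kg/ha, delivered into flood water; visual 0-9 score after 3 to 4 weeks.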

[2] = test system: ABUTH (Velvetleaf); test: Preemergence herbicidal evaluation; format: in vivo, Abutilon theophrasti; conditions: rated 4-5 weeks after treatment
In short: (§2)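 Seeds were mixed with potting soil and planted on about one inch of soil, then sprayed with test compound in aqueous acetone at about 0.0156 to 0.500 kg per hectare. Plants grew under standard greenhouse care and were visually rated 0-9 against untreated controls 4-5 weeks post-treatment.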

[3] = test system: CASOB (Sicklepod); test: Preemergence herbicidal evaluation; format: in vivo, Cassia obtusifolia; conditions: rated 4-5 weeks after treatment
In short: as §2

[4] = test system: AMBEL (Ragweed, Common); test: Preemergence herbicidal evaluation; format: in vivo, Ambrosia artemisifolia; conditions: rated 4-5 weeks after treatment
In short: as §2

[5] = test system: IPOHE (Morningglory, Ivyleaf); test: Postemergence herbicidal evaluation; format: in vivo, Ipomoea hederacea; conditions: for IPOHE herbicidal rating: postemergence
In short: (§3)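 Herbicidal effect was judged by eye on a 0–9 scale covering stand, vigor, deformity, size and chlorosis, compared with controls, four to five weeks after seedlings about two weeks old were sprayed (40 psi, ~0.0156–0.500 kg/ha).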

[6] = test system: ZEAMX (Corn, Field); test: Postemergence herbicidal evaluation; format: in vivo, Zea mays; conditions: for ZEAMX herbicidal rating: postemergence
In short: as §3

[7] = test system: GLXMAW (Soybean, Williams); test: Postemergence herbicidal evaluation; format: in vivo, Glycine max, (L.) Merr. cv Williams; conditions: for GLXMAW herbicidal rating: postemergence
In short: as §3

[8] = test system: CYPSE (Flatsedge); test: Preemergence weed control under flooded paddy conditions; format: in vivo, Cyperus serotinus; conditions: rated 3-4 weeks after treatment
In short: as §1

[9] = test system: SETVI (Foxtail, Green); test: Preemergence herbicidal evaluation; format: in vivo, Setaria viridis; conditions: rated 4-5 weeks after treatment
In short: as §2

[10] = test system: AMBEL (Ragweed, Common); test: Postemergence herbicidal evaluation; format: in vivo, Ambrosia artemisifolia; conditions: for AMBEL herbicidal rating: postemergence
In short: as §3

[11] = test system: ECHCG (Barnyardgrass); test: Preemergence herbicidal evaluation; format: in vivo, Echinochloa crus-galli; conditions: rated 4-5 weeks after treatment
In short: as §2

[12] = test system: GLXMAW (Soybean, Williams); test: Preemergence herbicidal evaluation; format: in vivo, Glycine max, (L.) Merr. cv Williams; conditions: rated 4-5 weeks after treatment
In short: as §2

[13] = test system: GALAP (Galium); test: Preemergence herbicidal evaluation; format: in vivo, Galium aparine; conditions: rated 4-5 weeks after treatment
In short: as §2

[14] = test system: ECHORC (Watergrass (Calif.)); test: Postemergence weed control under flooded paddy conditions; format: in vivo, Echinochloa oryzoides; conditions: postemergence weeds
In short: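 Weeds 3 to 5 cm tall and rice seedlings at the 1.5 to 2.5 leaf stage were flooded, with water held 1.5 to 3 cm above the soil. Compounds in 50/50 v/v aqueous/acetone went into the flood water at about 0.0313 to 0.500 kg/ha. Visual 0-9 ratings versus control were made 3 to 4 weeks later.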

## COC(=O)[C@@H](Cc1ccccc1)N1C(=O)CSC1=Nc1cc(-n2c(=O)cc(C(F)(F)F)n(C)c2=O)c(F)cc1Cl [Compound 74, Methyl α-benzyl-2-{{2-chloro-5-[3,6-dihydro-3-methyl-2,6-dioxo-4-(trifluoromethyl)-1(2H)-pyrimidinyl]-4-fluorophenyl}imino}-4-oxo-3-thiazolidineacetate, D-]
[1]; 0.0313 kg/ha
  SAGPY herbicidal effect rating: 3.0
[1]; 0.0625 kg/ha
  SAGPY herbicidal effect rating: 3.0
[1]; 0.1250 kg/ha
  SAGPY herbicidal effect rating: 3.0
[1]; 0.2500 kg/ha
  SAGPY herbicidal effect rating: 9.0
[2]; rate 0.0156 kg/ha
  Preemergence herbicidal rating ABUTH: 0.0
[2]; rate 0.0313 kg/ha
  Preemergence herbicidal rating ABUTH: 4.0
[2]; rate 0.0625 kg/ha
  Preemergence herbicidal rating ABUTH: 9.0
[2]; rate 0.1250 kg/ha
  Preemergence herbicidal rating ABUTH: 9.0
[2]; rate 0.2500 kg/ha
  Preemergence herbicidal rating ABUTH: 9.0
[3]; rate 0.0156 kg/ha
  Preemergence herbicidal rating CASOB: 0.0
[3]; rate 0.0313 kg/ha
  Preemergence herbicidal rating CASOB: 0.0
[3]; rate 0.0625 kg/ha
  Preemergence herbicidal rating CASOB: 0.0
[3]; rate 0.1250 kg/ha
  Preemergence herbicidal rating CASOB: 0.0
[3]; rate 0.2500 kg/ha
  Preemergence herbicidal rating CASOB: 0.0
[4]; rate 0.0156 kg/ha
  Preemergence herbicidal rating AMBEL: 0.0
[4]; rate 0.0313 kg/ha
  Preemergence herbicidal rating AMBEL: 1.0
[4]; rate 0.0625 kg/ha
  Preemergence herbicidal rating AMBEL: 3.0
[4]; rate 0.1250 kg/ha
  Preemergence herbicidal rating AMBEL: 9.0
[4]; rate 0.2500 kg/ha
  Preemergence herbicidal rating AMBEL: 9.0
[5]; rate 0.0158 kg/ha
  IPOHE herbicidal rating: 9.0
[5]; rate 0.0315 kg/ha
  IPOHE herbicidal rating: 9.0
[5]; rate 0.0630 kg/ha
  IPOHE herbicidal rating: 9.0
[6]; rate 0.0158 kg/ha
  ZEAMX herbicidal rating: 4.5
[6]; rate 0.0315 kg/ha
  ZEAMX herbicidal rating: 5.0
[6]; rate 0.0630 kg/ha
  ZEAMX herbicidal rating: 5.5
[7]; rate 0.0158 kg/ha
  GLXMAW herbicidal rating: 5.5
[7]; rate 0.0315 kg/ha
  GLXMAW herbicidal rating: 5.0
[7]; rate 0.0630 kg/ha
  GLXMAW herbicidal rating: 6.5
[8]; 0.0313 kg/ha
  CYPSE herbicidal effect rating: 0.0
[8]; 0.0625 kg/ha
  CYPSE herbicidal effect rating: 5.0
[8]; 0.1250 kg/ha
  CYPSE herbicidal effect rating: 5.0
[8]; 0.2500 kg/ha
  CYPSE herbicidal effect rating: 9.0
[9]; rate 0.0156 kg/ha
  Preemergence herbicidal rating SETVI: 0.0
[9]; rate 0.0313 kg/ha
  Preemergence herbicidal rating SETVI: 0.0
[9]; rate 0.0625 kg/ha
  Preemergence herbicidal rating SETVI: 1.0
[9]; rate 0.1250 kg/ha
  Preemergence herbicidal rating SETVI: 4.0
[9]; rate 0.2500 kg/ha
  Preemergence herbicidal rating SETVI: 9.0
[10]; rate 0.0158 kg/ha
  AMBEL herbicidal rating: 9.0
[10]; rate 0.0315 kg/ha
  AMBEL herbicidal rating: 9.0
[10]; rate 0.0630 kg/ha
  AMBEL herbicidal rating: 9.0
[11]; rate 0.0156 kg/ha
  Preemergence herbicidal rating ECHCG: 0.0
[11]; rate 0.0313 kg/ha
  Preemergence herbicidal rating ECHCG: 0.0
[11]; rate 0.0625 kg/ha
  Preemergence herbicidal rating ECHCG: 1.0
[11]; rate 0.1250 kg/ha
  Preemergence herbicidal rating ECHCG: 0.0
[11]; rate 0.2500 kg/ha
  Preemergence herbicidal rating ECHCG: 1.0
[12]; rate 0.0156 kg/ha
  Preemergence herbicidal rating GLXMAW: 0.0
[12]; rate 0.0313 kg/ha
  Preemergence herbicidal rating GLXMAW: 1.0
[12]; rate 0.0625 kg/ha
  Preemergence herbicidal rating GLXMAW: 0.0
[12]; rate 0.1250 kg/ha
  Preemergence herbicidal rating GLXMAW: 1.0
[12]; rate 0.2500 kg/ha
  Preemergence herbicidal rating GLXMAW: 1.0
[13]; rate 0.0156 kg/ha
  Preemergence herbicidal rating GALAP: 0.0
[13]; rate 0.0313 kg/ha
  Preemergence herbicidal rating GALAP: 0.0
[13]; rate 0.0625 kg/ha
  Preemergence herbicidal rating GALAP: 0.0
[13]; rate 0.1250 kg/ha
  Preemergence herbicidal rating GALAP: 0.0
[13]; rate 0.2500 kg/ha
  Preemergence herbicidal rating GALAP: 9.0
[14]; Rate 0.0313 kg/ha, rated 3 to 4 weeks after treatment
  Herbicidal rating ECHORC: 7.0
[14]; Rate 0.0625 kg/ha, rated 3 to 4 weeks after treatment
  Herbicidal rating ECHORC: 9.0
[14]; Rate 0.1250 kg/ha, rated 3 to 4 weeks after treatment
  Herbicidal rating ECHORC: 9.0
[14]; Rate 0.2500 kg/ha, rated 3 to 4 weeks after treatment
  Herbicidal rating ECHORC: 9.0

## Cn1c(C(F)(F)F)cc(=O)n(-c2cc(N=C3NC(=O)CS3)c(Cl)cc2F)c1=O [Compound 39, 3-{4-Chloro-2-fluoro-5-[(4-oxo-2-thiazolidinylidene)amino]phenyl}-1-methyl-6-(trifluoromethyl)-2,4(1H,3H)-pyrimidinedione]
[1]; 0.0313 kg/ha
  Herbicidal rating SAGPY: 0.0
[1]; 0.0625 kg/ha
  Herbicidal rating SAGPY: 0.0
[1]; 0.1250 kg/ha
  Herbicidal rating SAGPY: 0.0
[1]; 0.2500 kg/ha
  Herbicidal rating SAGPY: 4.0
[2]; rate 0.0156 kg/ha
  Preemergence herbicidal rating ABUTH: 0.0
[2]; rate 0.0313 kg/ha
  Preemergence herbicidal rating ABUTH: 0.0
[2]; rate 0.0625 kg/ha
  Preemergence herbicidal rating ABUTH: 1.0
[2]; rate 0.1250 kg/ha
  Preemergence herbicidal rating ABUTH: 9.0
[2]; rate 0.2500 kg/ha
  Preemergence herbicidal rating ABUTH: 9.0
[3]; rate 0.0313 kg/ha
  Preemergence herbicidal rating CASOB: 0.0
[3]; rate 0.0625 kg/ha
  Preemergence herbicidal rating CASOB: 0.0
[3]; rate 0.1250 kg/ha
  Preemergence herbicidal rating CASOB: 2.0
[3]; rate 0.2500 kg/ha
  Preemergence herbicidal rating CASOB: 1.0
[4]; rate 0.0156 kg/ha
  Preemergence herbicidal rating AMBEL: 0.0
[4]; rate 0.0313 kg/ha
  Preemergence herbicidal rating AMBEL: 0.0
[4]; rate 0.0625 kg/ha
  Preemergence herbicidal rating AMBEL: 0.0
[4]; rate 0.1250 kg/ha
  Preemergence herbicidal rating AMBEL: 6.0
[4]; rate 0.2500 kg/ha
  Preemergence herbicidal rating AMBEL: 7.0
[5]; Rate 0.0158 kg/ha
  Postemergence herbicidal rating IPOHE: 2.0
[5]; Rate 0.0315 kg/ha
  Postemergence herbicidal rating IPOHE: 7.0
[5]; Rate 0.0630 kg/ha
  Postemergence herbicidal rating IPOHE: 7.0
[6]; Rate 0.0158 kg/ha
  Postemergence herbicidal rating ZEAMX: 3.0
[6]; Rate 0.0315 kg/ha
  Postemergence herbicidal rating ZEAMX: 3.0
[6]; Rate 0.0630 kg/ha
  Postemergence herbicidal rating ZEAMX: 3.0
[7]; Rate 0.0158 kg/ha
  Postemergence herbicidal rating GLXMAW: 4.5
[7]; Rate 0.0315 kg/ha
  Postemergence herbicidal rating GLXMAW: 5.0
[7]; Rate 0.0630 kg/ha
  Postemergence herbicidal rating GLXMAW: 5.0
[8]; 0.0313 kg/ha
  Herbicidal rating CYPSE: 0.0
[8]; 0.0625 kg/ha
  Herbicidal rating CYPSE: 0.0
[8]; 0.1250 kg/ha
  Herbicidal rating CYPSE: 0.0
[8]; 0.2500 kg/ha
  Herbicidal rating CYPSE: 0.0
[9]; rate 0.0156 kg/ha
  Preemergence herbicidal rating SETVI: 0.0
[9]; rate 0.0313 kg/ha
  Preemergence herbicidal rating SETVI: 0.0
[9]; rate 0.0625 kg/ha
  Preemergence herbicidal rating SETVI: 0.0
[9]; rate 0.1250 kg/ha
  Preemergence herbicidal rating SETVI: 0.0
[9]; rate 0.2500 kg/ha
  Preemergence herbicidal rating SETVI: 2.0
[10]; Rate 0.0158 kg/ha
  Postemergence herbicidal rating AMBEL: 0.0
[10]; Rate 0.0315 kg/ha
  Postemergence herbicidal rating AMBEL: 3.0
[10]; Rate 0.0630 kg/ha
  Postemergence herbicidal rating AMBEL: 7.0
[11]; rate 0.0156 kg/ha
  Preemergence herbicidal rating ECHCG: 0.0
[11]; rate 0.0313 kg/ha
  Preemergence herbicidal rating ECHCG: 0.0
[11]; rate 0.0625 kg/ha
  Preemergence herbicidal rating ECHCG: 0.0
[11]; rate 0.1250 kg/ha
  Preemergence herbicidal rating ECHCG: 0.0
[11]; rate 0.2500 kg/ha
  Preemergence herbicidal rating ECHCG: 0.0
[12]; rate 0.0156 kg/ha
  Preemergence herbicidal rating GLXMAW: 0.0
[12]; rate 0.0313 kg/ha
  Preemergence herbicidal rating GLXMAW: 0.0
[12]; rate 0.0625 kg/ha
  Preemergence herbicidal rating GLXMAW: 0.0
[12]; rate 0.1250 kg/ha
  Preemergence herbicidal rating GLXMAW: 5.0
[12]; rate 0.2500 kg/ha
  Preemergence herbicidal rating GLXMAW: 7.0
[13]; rate 0.0156 kg/ha
  Preemergence herbicidal rating GALAP: 0.0
[13]; rate 0.0313 kg/ha
  Preemergence herbicidal rating GALAP: 0.0
[13]; rate 0.0625 kg/ha
  Preemergence herbicidal rating GALAP: 0.0
[13]; rate 0.1250 kg/ha
  Preemergence herbicidal rating GALAP: 6.0
[13]; rate 0.2500 kg/ha
  Preemergence herbicidal rating GALAP: 9.0
[14]; rate 0.0313 kg/ha, 3-4 weeks after treatment
  Herbicidal rating ECHORC: 0.0
[14]; rate 0.0625 kg/ha, 3-4 weeks after treatment
  Herbicidal rating ECHORC: 0.0
[14]; rate 0.1250 kg/ha, 3-4 weeks after treatment
  Herbicidal rating ECHORC: 2.0
[14]; rate 0.2500 kg/ha, 3-4 weeks after treatment
  Herbicidal rating ECHORC: 3.0
